We go through 3 compounds from patent EP0214101A2, “Use of iron(III) chelators of the type desferrioxamine-B and desferriferrithiocine in the treatment of malaria” (CIBA-GEIGY AG, priority 1985, dated 1987).

SMILES strings stand for the structures. Like-named read-outs stand apart in the source and are kept apart here.

Data set [1] has as its system Plasmodium falciparum T96 Chloroquinresistente Zellinie B. Briefly: microbe, parasite or virus in culture. The class given is cell-based. The settings on record: for IC50: Plasmodium falciparum, Erythrocyte, over 2 cycles. From the text:
(§1) • a) Durch konventionelles Züchten des Stammes Plasmodium falciparum T96 in einer 2 % (V/V) Suspension von humanen Erythrozyten wird der Grundorganismus-Zellinie A fortgepflanzt, welche eine normale Empfindlichkeit gegenüber Chloroquin aufweist. • b) Zellinie A des obigen Stammes wird unter analogen Standardbedingungen wie unter a) gezüchtet, jedoch mit Zusatz von immer ansteigenden Konzentrationen von Chloroquin, bis eine Chloroquinresistente Zellinie B resultiert, welche weiterhin in Kulturmedien mit einer 500 nM-Konzentration von Chloroquin andauernd normales Wachstum (dieselbe Wachstumsraten wie Zellinie A) aufweist.
(§2) • I. Die Züchtung von Testorganismen erfolgt unter den für Züchtung von Plasmodien üblichen Bedingungen auf einer 2 % Suspension von humanen Erythrozyten, supplementiert mit 50 mg/1 Hypoxanthin und gegebenenfalls unter Zugabe der getesteten Hemmsubstanz in gewünschter Konzentration. Die initiale Parasitämie (= der prozentuelle Anteil der zu Beginn von Plasmodien infizierten Erythrozyten) beträgt 1-2 %. Das Resultat (Hemmwirkung) wird als IC50 ausgewertet, d.h. jene Konzentration des Wirkstoffes, die eine Senkung der finalen Parasitämie um 50 %, d.h. eine 50%ige Hemmung des Wachstums, verursacht. • II. In einer alternativen Versuchsanordnung wird beim Einhalten aller übrigen Bedingungen ohne Zugabe von Hypoxanthin und mit einer initialen Parasitämie von 0,5 % gearbeitet.

A further data set relates to Bakterien. The settings on record: cited from earlier work.
Data set [2] concerns Plasmodium falciparum T96 Zellinie A. Briefly: Growth inhibition of Plasmodium falciparum T96 cell line A (normal chloroquine sensitivity) in culture on human erythrocytes. Format: cell-based. The settings on record: Erythrocyte, over 2 cycles.
Text: as §1
as §2, with “In einer alternativen Versuchsanordnung wird beim Einhalten aller übrigen Bedingungen ohne Zugabe von Hypoxanthin und mit einer initialen Parasitämie von 0,5 % gearbeitet.” left out

The test system of another data set is P. vinckei. Particulars: cited from earlier work.
The conditions of data set [3]: very high doses; cited from earlier work.
In data set [4] the test system is Plasmodium falciparum in Kultur an menschlichen Erythrozyten. The settings on record: in vitro culture; cited from earlier work.

Take `CCN(CC)CCCC(C)Nc1ccnc2cc(Cl)ccc12` (stereo not drawn) [Chloroquin, 7-Chlor-4-(4-diethylamino-l-methylbutylamino)chinolin]: the Vermehrungsfaktor in data set [1] (Versuchsanordnung I with 500 nM Chloroquin, within 48 hours) is 7-9.
Turning to `CC1(C(=O)O)CSC(c2ncccc2O)=N1` (stereo not shown) [Desferri-ferrithiocin, 2-(3-Hydroxy-2-pyridyl)-4-methyl-2-thiazolin-4-carbonsäure], the “antibakterielle Wirksamkeit in vitro” value in the data set on Bakterien was “gewisse allgemeine antibakterielle Wirksamkeit in vitro”.
With `CC(=O)N(O)CCCCCNC(=O)CCC(=O)N(O)CCCCCNC(=O)CCC(=O)N(O)CCCCCN` [Desferrioxamin B, 6,17,28-Trihydroxy-7,10,18,21,29-pentaoxo-6,11,17,22,28-pentaaza-triacontanylamin], the IC50 (commonly the concentration needed to halve the response being measured) in data set [2] (Versuchsanordnung I) is 17 ± 3 µM; in data set [2] (Versuchsanordnung II) it was 5 µM; in data set [1] (Versuchsanordnung I, with 400 nM Chloroquin added) it was 3 ± 1 µM; in data set [1] (Versuchsanordnung I, without Chloroquin in test medium), 6 ± 1.5 µM; in data set [1] (Versuchsanordnung II, without Chloroquin in test medium) it was 2 ± 1 µM. Moreover, in the data set with Bakterien, the “antibakterielle Wirksamkeit in vitro” value is “gewisse allgemeine antibakterielle Wirksamkeit in vitro”. Besides, the “Wirksamkeit gegen Chloroquin-resistenten Stamm im Vergleich zu normal empfindlichem Stamm” value in data set [1] (comparison of resistant with sensitive strain grown under the same conditions) is reported as “um fast eine Grössenordnung wirksamer”. Moreover, the “Wachstum des Parasiten” value is reported as “das Wachstum des Parasiten deutlich hemmt” in the data set with P. vinckei (0,2 g/kg) and “ihn vollständig tötet” in the data set with P. vinckei (1,0 g/kg). For the same compound, the Toxikologie result in data set [3] was “auch in sehr hohen Dosen toxikologisch einwandfrei”. In addition, in data set [4], the “Wachstum / Abtötung in vitro” value is given as “nicht nur in ihrem Wachstum gehemmt, sondern auch getötet”.
